Assay results published in patent US20250051355A1, “COMPOUNDS, COMPOSITIONS, AND METHODS” (ACONCAGUA BIO, INC., priority 2023, published 2025).
pEC50: −log10 of the molar value.

Key:
[1] = target: T1, human calcitonin receptor (CTR) (Homo sapiens, UniProt P30988); assay: Calcitonin receptor (CTR) cAMP Assay; type: cell-based; settings: COS7-human CTR Clone #2 cells, cAMP dynamic 2 kit; read-out: Calcitonin Receptor cAMP Stimulation Activity: EC50
T1 construct: expressed in transfected cells; host or cells: COS-7 (COS7-human CTR Clone #2)
T1 sequence (P30988 25-474): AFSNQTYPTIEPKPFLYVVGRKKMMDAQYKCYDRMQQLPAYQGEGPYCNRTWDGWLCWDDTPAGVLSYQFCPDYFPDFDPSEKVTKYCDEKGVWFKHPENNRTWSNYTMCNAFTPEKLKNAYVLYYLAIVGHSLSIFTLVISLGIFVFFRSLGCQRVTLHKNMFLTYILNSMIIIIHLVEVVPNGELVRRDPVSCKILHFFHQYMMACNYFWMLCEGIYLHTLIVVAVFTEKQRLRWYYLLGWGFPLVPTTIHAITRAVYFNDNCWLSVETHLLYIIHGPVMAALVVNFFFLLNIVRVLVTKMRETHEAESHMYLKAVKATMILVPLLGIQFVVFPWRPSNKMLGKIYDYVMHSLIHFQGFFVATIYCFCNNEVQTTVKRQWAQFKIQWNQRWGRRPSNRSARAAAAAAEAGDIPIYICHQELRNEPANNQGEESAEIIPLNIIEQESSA
Outline: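 COS-7 cells stably expressing human CTR (2000 cells/well) treated with 4-fold serially diluted compounds in HBSS/20 mM HEPES/0.5 mM IBMX/0.1% casein, 30 min at 37° C. cAMP quantified by HTRF (cAMP-d2 plus anti-cAMP cryptate, 1 h RT), fluorescence read at 665 and 615 nm.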

[2] = target: human calcitonin receptor (CTR) and RAMP3 (AMY3) (Homo sapiens, UniProt O60896+P30988); assay: Amylin Receptor cAMP Assay II; type: cell-based; settings: COS-7/AMY3 cells, cAMP dynamic 2 kit, read-out: Amylin Receptor cAMP Stimulation Activity: EC50
human calcitonin receptor (CTR) and RAMP3 (AMY3), sequence (O60896 24-148, one chain of several): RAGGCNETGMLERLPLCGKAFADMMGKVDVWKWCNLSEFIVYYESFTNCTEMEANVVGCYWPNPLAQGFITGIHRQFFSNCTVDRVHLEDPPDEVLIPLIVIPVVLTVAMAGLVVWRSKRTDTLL
Outline: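 COS-7 cells stably co-expressing human CTR and RAMP3 (AMY3) were treated with 4-fold serially diluted compounds at 2000 cells/well in HBSS with 20 mM HEPES, 0.5 mM IBMX and 0.1% casein for 30 min at 37 °C. cAMP was measured by HTRF (cAMP-d2 plus anti-cAMP cryptate, 1 h at RT) with reads at 665/615 nm.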

In the case of `Cc1nnc(-c2c(CCC3CCOCC3)nc3c(c2C2CCN(C(=O)Cc4ccc(F)c(F)c4)C2)S(=O)(=O)CC3C(C)C)o1` (stereo not drawn) [Compound 107, 7-{1-[2-(3,4-difluorophenyl)acetyl]-3-pyrrolidinyl}-3-isopropyl-6-(5-methyl-1,3,4-oxadiazol-2-yl)-5-[2-(tetrahydro-2H-pyran-4-yl)ethyl]-1D′-thia-4-aza-1,1-indandione], the pEC50 [1] was 5.18 and the pEC50 [2] was < 7.00.
Compound `Cc1nnc(-c2c(CCC3CCOC(C)(C)C3)nc3c(c2-c2cc4ncnc(N[C@@H]5CCc6ncccc65)c4s2)S(=O)(=O)CC3C(C)C)o1` (stereo partly drawn) [Compound 108, N—(R)-4-aza-1-indanyl(2-(5-[2-(2,2-dimethyltetrahydro-2H-pyran-4-yl)ethyl]-3-isopropyl-6-(5-methyl-1,3,4-oxadiazol-2-yl)-1,1-dioxo-1λ^6-thia-4-aza-7-indanyl}-1-thia-4,6-diaza-7-indenyl)amine] has a pEC50 [1] of 7.38 and a pEC50 [2] of 6.34.
With `Cc1nnc(-c2c(CCC3CCOCC3)nc3c(c2-c2cnc4c(ccn4Cc4ccc(C#N)c(F)c4)c2)C(=O)N[C@H]3C(C)C)o1` [Compound 143, 4-[(5-{(S)-3-isopropyl-6-(5-methyl-1,3,4-oxadiazol-2-yl)-1-oxo-5-[2-(tetrahydro-2H-pyran-4-yl)ethyl]-2,4-diaza-7-indanyl}-1H-1,7-diazainden-1-yl)methyl]-2-fluorobenzonitrile] the pEC50 [1] was 8.20 and the pEC50 [2] was 7.10.
In the case of `COc1nnc(-c2c(CCC3CCOCC3)nc3c(c2-c2cc4ccnc(N[C@@H]5CCc6ncccc65)c4s2)S(=O)(=O)CC3C(C)C)o1` (stereo partly drawn) [Compound 123, N—(R)-4-aza-1-indanyl(2-(3-isopropyl-6-(5-methoxy-1,3,4-oxadiazol-2-yl)-1,1-dioxo-5-[2-(tetrahydro-2H-pyran-4-yl)ethyl]-1λ^6-thia-4-aza-7-indanyl}-1-thia-6-aza-7-indenyl)amine], the pEC50 [1] was 6.87 and the pEC50 [2] was 5.36.
Compound `Cc1nnc(-c2c(C(C)C)nc3c(c2-c2ccc4c(c2)OCC(=O)N4Cc2ccc(F)cn2)C(=O)N2CCC[C@@H]32)o1` [Compound 158, 7-((2S)-11-isopropyl-10-(5-methyl-1,3,4-oxadiazol-2-yl)-7-oxo-6,12-diazatricyclo[6.4.0.0^2,6]dodeca-1(12),8,10-trien-9-yl}-4-[(5-fluoro-2-pyridyl)methyl]-2,4-dihydro-1,4-benzoxazin-3-one] has a pEC50 [1] of 6.62 and a pEC50 [2] of 5.23.
`Cc1cnc(-c2c(CCC3CCOCC3)nc3c(c2-c2ccc4c(c2)oc(=O)n4Cc2ccc(C#N)cn2)C(=O)N2CCC[C@@H]32)o1` [Compound 101] showed a pEC50 [1] of 8.65 and a pEC50 [2] of 7.42.
`Cc1noc(-c2c(CCC3CCOCC3)nc3c(c2-c2cc4ccnc(N[C@@H]5CCc6ncccc65)c4s2)S(=O)(=O)CC3C(C)C)n1` (stereo partly drawn) [Compound 102, N—(R)-4-aza-1-indanyl(2-(3-isopropyl-6-(3-methyl-1,2,4-oxadiazol-5-yl)-1,1-dioxo-5-[2-(tetrahydro-2H-pyran-4-yl)ethyl]-1λ^6-thia-4-aza-7-indanyl}-1-thia-6-aza-7-indenyl)amine] was tested, and the pEC50 [1] was 7.30 and the pEC50 [2] was 6.58.
For `Cc1cnc(-c2c(CCC34CCC(CC3)OC4)nc3c(c2-c2ccc4c(c2)OCC(=O)N4Cc2ccc(F)cn2)c(=O)n2n3CCC2)o1` [Compound 157, 9-(4-[(5-fluoro-2-pyridyl)methyl]-3-oxo-2,4-dihydro-1,4-benzoxazin-7-yl}-10-(5-methyl-1,3-oxazol-2-yl)-11-(2-(2-oxabicyclo[2.2.2]oct-4-yl)ethyl}-2,6,12-triazatricyclo[6.4.0.0^2,6]dodeca-1(12),8,10-trien-7-one], the pEC50 [1] was 8.02 and the pEC50 [2] was 6.57.
Work on `Cc1cc(-c2c(CCC3CCOCC3)nc3c(c2-c2cc4ccnc(N[C@@H]5CCc6ncccc65)c4s2)S(=O)(=O)CC3C(C)C)ccn1` (stereo partly drawn) [Compound 91, 7-(7-(((R)-6,7-dihydro-5H-cyclopenta[b]pyridin-5-yl)amino)thieno[2,3-c]pyridin-2-yl)-3-isopropyl-6-(2-methylpyridin-4-yl)-5-(2-(tetrahydro-2H-pyran-4-yl)ethyl)-2,3-dihydrothieno[3,2-b]pyridine 1,1-dioxide] yielded a pEC50 [1] of 7.34 and a pEC50 [2] of 6.30.
